In patent US6358885B1, “Substituted phenylheterocyclic herbicides” (Mississippi State University, priority 1992, dated 2002):

Tests used:
Test in all cases: Test G preemergence/postemergence greenhouse plant response rating 0 to 100
common purslane = type: in vivo, Portulaca oleracea; settings: 0 to 100 scale
Description: (§1) Seeds, rhizomes, or plant parts of alfalfa (Medicago ativa), annual bluegrass (Poa annua), bermudagrass (Cynodon dactylon), broadleaf signalgrass (Brachiaria plantaginea), common purslane (Portulaca oleracea), common ragweed (Ambrosia elatior), […] (Paspalum dilatatum), goosegrass (Eleusine indica), guineagrass (Panicum maximum), […] exaltata), johnsongrass (Sorghum halepense), large crabgrass (Digitaria sanguinalis), peanut (Arachis hypoagaea), pitted morningglory (Ipomoea lacunosa), purple nutsedge (Cyperus rotundus), sandbur (Cenchrus echinatus), smooth crabgrass (Digitaria ischaemum) and yellow nutsedge (Cyperus esculentus) were planted into greenhouse pots containing greenhouse planting medium. Each pot contained only one plant species. The test compound was dissolved in a non-phytotoxic solvent and applied preemergence and/or postemergence to the plants. Preemergence applications were made within one day of planting the seeds or plant parts. Postemergence applications were applied when the plants were in the two to four leaf stage (three to twenty cm). Test chemicals were dissolved in a non-phytotoxic solvent and applied preemergence and postemergence to the plants. Untreated control plants and treated plants were placed in the greenhouse and visually evaluated for injury at 13 to 21 days after herbicide application. […] A dash (-) response indicates no test result.

broadleaf signalgrass = type: in vivo, Brachiaria plantaginea; settings: 0 to 100 scale
Description: as §1

dallisgrass = type: in vivo, Paspalum dilatatum; settings: 0 to 100 scale
Description: as §1

sandbur = type: in vivo, Cenchrus echinatus; settings: 0 to 100 scale
Description: as §1

common ragweed = type: in vivo, Ambrosia elatior; settings: 0 to 100 scale
Description: as §1

guineagrass = type: in vivo, Panicum maximum; settings: 0 to 100 scale
Description: as §1

itchgrass = type: in vivo, Rottboellia exaltata; settings: 0 to 100 scale
Description: as §1

alfalfa = type: in vivo, Medicago ativa; settings: 0 to 100 scale
Description: as §1

annual bluegrass = type: in vivo, Poa annua; settings: 0 to 100 scale
Description: as §1

smooth crabgrass = type: in vivo, Digitaria ischaemum; settings: 0 to 100 scale
Description: as §1

purple nutsedge = type: in vivo, Cyperus rotundus; settings: Rate 125 g/ha, 0 to 100 scale
Description: as §1

pitted morningglory = type: in vivo, Ipomoea lacunosa; settings: 0 to 100 scale
Description: as §1

johnsongrass = type: in vivo, Sorghum halepense; settings: 0 to 100 scale
Description: as §1

large crabgrass = type: in vivo, Digitaria sanguinalis; settings: 0 to 100 scale
Description: as §1

bermudagrass = type: in vivo, Cynodon dactylon; settings: 0 to 100 scale
Description: as §1

goosegrass = type: in vivo, Eleusine indica; settings: 0 to 100 scale
Description: as §1

Structure (SMILES): COc1cc(-c2nn3c(c2Cl)CCCC3)c(F)cc1Cl [Compound 29]
- Plant response rating, Cmn Purslane (common purslane; POSTEMERGENCE, Rate 125 g/ha): 90
- Plant response rating, Cmn Purslane (common purslane; POSTEMERGENCE, Rate 250 g/ha): 80
- Plant response rating, Cmn Purslane (common purslane; PREEMERGENCE, Rate 125 g/ha): 0
- Plant response rating, Cmn Purslane (common purslane; PREEMERGENCE, Rate 250 g/ha): 100
- Plant response rating, Brdlf Sgnlgrass (broadleaf signalgrass; POSTEMERGENCE, Rate 125 g/ha): 0
- Plant response rating, Brdlf Sgnlgrass (broadleaf signalgrass; POSTEMERGENCE, Rate 250 g/ha): 0
- Plant response rating, Brdlf Sgnlgrass (broadleaf signalgrass; PREEMERGENCE, Rate 125 g/ha): 0
- Plant response rating, Brdlf Sgnlgrass (broadleaf signalgrass; PREEMERGENCE, Rate 250 g/ha): 0
- Plant response rating, Dallisgrass (dallisgrass; POSTEMERGENCE, Rate 125 g/ha): 0
- Plant response rating, Dallisgrass (dallisgrass; POSTEMERGENCE, Rate 250 g/ha): 0
- Plant response rating, Dallisgrass (dallisgrass; PREEMERGENCE, Rate 125 g/ha): 80
- Plant response rating, Dallisgrass (dallisgrass; PREEMERGENCE, Rate 250 g/ha): 90
- Plant response rating, S. Sandbur (sandbur; POSTEMERGENCE, Rate 125 g/ha): 0
- Plant response rating, S. Sandbur (sandbur; POSTEMERGENCE, Rate 250 g/ha): 0
- Plant response rating, S. Sandbur (sandbur; PREEMERGENCE, Rate 125 g/ha): 0
- Plant response rating, S. Sandbur (sandbur; PREEMERGENCE, Rate 250 g/ha): 0
- Plant response rating, Cmn Ragweed (common ragweed; POSTEMERGENCE, Rate 125 g/ha): 20
- Plant response rating, Cmn Ragweed (common ragweed; POSTEMERGENCE, Rate 250 g/ha): 60
- Plant response rating, Cmn Ragweed (common ragweed; PREEMERGENCE, Rate 125 g/ha): 20
- Plant response rating, Cmn Ragweed (common ragweed; PREEMERGENCE, Rate 250 g/ha): 40
- Plant response rating, Guineagrass (guineagrass; POSTEMERGENCE, Rate 125 g/ha): 0
- Plant response rating, Guineagrass (guineagrass; POSTEMERGENCE, Rate 250 g/ha): 0
- Plant response rating, Guineagrass (guineagrass; PREEMERGENCE, Rate 125 g/ha): 0
- Plant response rating, Guineagrass (guineagrass; PREEMERGENCE, Rate 250 g/ha): 100
- Plant response rating, Itchgrass (itchgrass; POSTEMERGENCE, Rate 125 g/ha): 0
- Plant response rating, Itchgrass (itchgrass; POSTEMERGENCE, Rate 250 g/ha): 0
- Plant response rating, Itchgrass (itchgrass; PREEMERGENCE, Rate 125 g/ha): 100
- Plant response rating, Itchgrass (itchgrass; PREEMERGENCE, Rate 250 g/ha): 40
- Plant response rating, Alfalfa Var. (alfalfa; POSTEMERGENCE, Rate 125 g/ha): 0
- Plant response rating, Alfalfa Var. (alfalfa; POSTEMERGENCE, Rate 250 g/ha): 70
- Plant response rating, Alfalfa Var. (alfalfa; PREEMERGENCE, Rate 125 g/ha): 0
- Plant response rating, Alfalfa Var. (alfalfa; PREEMERGENCE, Rate 250 g/ha): 0
- Plant response rating, Ann Bluegrass (annual bluegrass; POSTEMERGENCE, Rate 125 g/ha): 0
- Plant response rating, Ann Bluegrass (annual bluegrass; POSTEMERGENCE, Rate 250 g/ha): 0
- Plant response rating, Ann Bluegrass (annual bluegrass; PREEMERGENCE, Rate 125 g/ha): 0
- Plant response rating, Ann Bluegrass (annual bluegrass; PREEMERGENCE, Rate 250 g/ha): 0
- Plant response rating, Smooth Crabgras (smooth crabgrass; POSTEMERGENCE, Rate 125 g/ha): 0
- Plant response rating, Smooth Crabgras (smooth crabgrass; POSTEMERGENCE, Rate 250 g/ha): 0
- Plant response rating, Smooth Crabgras (smooth crabgrass; PREEMERGENCE, Rate 125 g/ha): 0
- Plant response rating, Smooth Crabgras (smooth crabgrass; PREEMERGENCE, Rate 250 g/ha): 100
- Plant response rating, Purple Nutsedge (purple nutsedge; POSTEMERGENCE): 0
- Plant response rating, Purple Nutsedge (purple nutsedge; PREEMERGENCE): 0
- Plant response rating, Pit Morninglory (pitted morningglory; POSTEMERGENCE, Rate 125 g/ha): 0
- Plant response rating, Pit Morninglory (pitted morningglory; POSTEMERGENCE, Rate 250 g/ha): 70
- Plant response rating, Pit Morninglory (pitted morningglory; PREEMERGENCE, Rate 125 g/ha): 0
- Plant response rating, Pit Morninglory (pitted morningglory; PREEMERGENCE, Rate 250 g/ha): 30
- Plant response rating, Johnsongrass (johnsongrass; POSTEMERGENCE, Rate 125 g/ha): 0
- Plant response rating, Johnsongrass (johnsongrass; POSTEMERGENCE, Rate 250 g/ha): 0
- Plant response rating, Johnsongrass (johnsongrass; PREEMERGENCE, Rate 125 g/ha): 0
- Plant response rating, Johnsongrass (johnsongrass; PREEMERGENCE, Rate 250 g/ha): 0
- Plant response rating, Large Crabgrass (large crabgrass; POSTEMERGENCE, Rate 125 g/ha): 0
- Plant response rating, Large Crabgrass (large crabgrass; POSTEMERGENCE, Rate 250 g/ha): 0
- Plant response rating, Large Crabgrass (large crabgrass; PREEMERGENCE, Rate 125 g/ha): 80
- Plant response rating, Large Crabgrass (large crabgrass; PREEMERGENCE, Rate 250 g/ha): 100
- Plant response rating, Bermudagrass (bermudagrass; POSTEMERGENCE, Rate 125 g/ha): 0
- Plant response rating, Bermudagrass (bermudagrass; POSTEMERGENCE, Rate 250 g/ha): 0
- Plant response rating, Bermudagrass (bermudagrass; PREEMERGENCE, Rate 125 g/ha): 0
- Plant response rating, Bermudagrass (bermudagrass; PREEMERGENCE, Rate 250 g/ha): 50
- Plant response rating, Goosegrass (goosegrass; POSTEMERGENCE, Rate 125 g/ha): 0
- Plant response rating, Goosegrass (goosegrass; POSTEMERGENCE, Rate 250 g/ha): 0
- Plant response rating, Goosegrass (goosegrass; PREEMERGENCE, Rate 125 g/ha): 90
- Plant response rating, Goosegrass (goosegrass; PREEMERGENCE, Rate 250 g/ha): 100
